pIC50: −log10 of the molar value.
Biological target: T1, Ornithine decarboxylase (Homo sapiens, UniProt P11926)
T1 sequence (P11926 whole entry): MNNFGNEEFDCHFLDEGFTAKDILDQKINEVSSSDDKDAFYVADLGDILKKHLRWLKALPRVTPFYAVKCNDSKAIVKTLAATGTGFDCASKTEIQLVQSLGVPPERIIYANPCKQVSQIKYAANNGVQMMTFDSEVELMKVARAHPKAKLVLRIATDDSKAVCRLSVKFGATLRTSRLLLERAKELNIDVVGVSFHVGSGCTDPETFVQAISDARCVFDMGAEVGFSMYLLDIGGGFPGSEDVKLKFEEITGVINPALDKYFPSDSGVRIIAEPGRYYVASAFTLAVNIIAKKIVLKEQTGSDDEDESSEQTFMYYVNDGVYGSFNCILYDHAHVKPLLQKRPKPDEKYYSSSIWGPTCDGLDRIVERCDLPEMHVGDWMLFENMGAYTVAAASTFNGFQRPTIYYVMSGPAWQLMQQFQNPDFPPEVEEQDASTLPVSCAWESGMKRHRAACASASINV
Assay: Inhibition of TPA-induced ornithine decarboxylase expressed in T24 cells

SMILES	pIC50
C/C(=C/C=C/[C@H](C)[C@H](O)[C@@H](C)[C@@H](O)[C@@H](C)[C@@H]1O[C@@]2(C)CC[C@@H](O2)[C@H]1C)C(N)=O [SALINIKETAL A]	5.30
C[C@H]([C@H](O)[C@H](C)[C@@H](O)[C@@H](C)/C=C/C=C(/CO)C(N)=O)[C@@H]1O[C@@]2(C)CC[C@@H](O2)[C@H]1C [SALINIKETAL B]	4.72

Reference: BindingDB's records for doi:10.1021/np0604580 (University of California - San Diego, 2007)
